For this test, the target named is T1, GCase (Homo sapiens, UniProt P04062).
T1 construct: endogenous in cells; host or cells: HeLa cells
T1 sequence (P04062 40-536): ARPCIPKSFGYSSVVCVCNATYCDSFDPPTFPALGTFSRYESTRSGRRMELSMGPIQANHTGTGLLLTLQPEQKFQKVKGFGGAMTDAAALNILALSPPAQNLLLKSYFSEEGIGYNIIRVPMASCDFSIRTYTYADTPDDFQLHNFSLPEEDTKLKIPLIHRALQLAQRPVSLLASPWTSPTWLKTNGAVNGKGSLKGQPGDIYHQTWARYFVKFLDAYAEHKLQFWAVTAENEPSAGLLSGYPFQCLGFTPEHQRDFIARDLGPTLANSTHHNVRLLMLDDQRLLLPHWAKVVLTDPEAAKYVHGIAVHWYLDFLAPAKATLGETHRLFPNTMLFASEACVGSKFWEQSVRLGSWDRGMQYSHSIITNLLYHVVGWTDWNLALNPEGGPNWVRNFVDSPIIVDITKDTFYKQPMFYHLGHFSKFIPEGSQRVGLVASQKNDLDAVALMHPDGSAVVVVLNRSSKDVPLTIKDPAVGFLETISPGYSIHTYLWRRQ
In words: activation of GCase in a live cell PFB assay in HELA cells. The test is classed as cell-based. As for the experimental part: Exemplary compounds were evaluated for activation of GCase in a live cell PFB assay in HELA cells (essentially as described in Ysselstein et al., “LRRK2 kinase activity regulates lysosomal glucocerebrosidase in neurons derived from Parkinson's disease patients” Nature Communications (2019) 10:5570). […] EC50 ranges: A: <10 μM; B: >10-50 μM; C: >50-100 μM; D: >100 μM.

Setting [1] is: activation of GCase, EC50 ranges.

EC50 data for 48 molecules are collected here from patent US20250034170A1, “SMALL MOLECULE MODULATORS OF GLUCOCEREBROSIDASE ACTIVITY AND USES THEREOF” (Vanqua Bio, Inc., priority 2021, published 2025).

pEC50: −log10 of the molar value.

Consider `Cc1nc(N2CC3(CCN(c4cnc5cnn(CC(F)F)c5n4)CC3)C2)cc(C(F)(F)F)n1` [Cmpd 522], for which the pEC50 under setting [1] was > 5.00. In the case of `Cn1c(=O)n(C2COC2)c2nc(N3CCC4(CN(c5ccnc(C(F)(F)F)c5)C4)C3)cnc21` [Cmpd 978], the pEC50 (EC50 given as range classes) was > 5.00. Regarding `FC(F)Cn1ncc2cnc(N3CC4(CCN(c5ccnc(C(F)(F)F)c5)C4)C3)nc21` [Cmpd 351], the pEC50 under setting [1] is > 5.00. As for `FC(F)Cn1ncc2ncc(N3CCC4(CCC(Oc5cnccc5C(F)(F)F)C4)CC3)nc21` (stereo not drawn) [Cmpd 688], the pEC50 under setting [1] was > 5.00. The same measure, in the same setting: for `COc1nn(C2COC2)c2nc(N3CCC4(CC3)CC(=O)N(c3ccc(C(F)(F)F)nc3)C4)cnc12` [Cmpd 950] the value was < 4.00; for `O=C1N(c2ccc(C(F)(F)F)nc2)CCC12CCN(c1cnc3cnn(C4COC4)c3n1)CC2` [Cmpd 886], 4.30 to 5.00; for `Cc1nc(N2CCC3(CCN(c4cnc5cnn(CC(F)F)c5n4)C3)C2)cc(C(F)(F)F)n1` (stereo not drawn) [Cmpd 521], > 5.00. Still for that read-out and setting: for `O=C1CC2(CN(c3ccnc(C(F)(F)F)c3)C2)CN1c1cnc2cnn(CC(F)F)c2n1` [Cmpd 340] the value was > 5.00. Consider `Cc1cc(N2CC3(CCN(c4ncc5cnn(C6COC6)c5n4)C3)C2)nc(C(F)(F)F)n1` [Cmpd 590], for which, where the note is “EC50 given as range classes”, the pEC50 was 4.30 to 5.00. Under setting [1], `O=C1CC2(CCN(c3cnc4cnn(CC(F)F)c4n3)CC2)CN1Cc1ccc(OC(F)(F)F)nc1` [Cmpd 918] gave a pEC50 of 4.30 to 5.00. Still for that read-out and setting: next, `CC1CN(c2cnc3cnn(CC(F)F)c3n2)CC[C@@]12CCN(c1cccc(C(F)(F)F)n1)C2=O` (stereo partly drawn) [Cmpd 670]: 4.30 to 5.00. With `Cc1nc(N2CCC3(CCN(c4ncc5c(C)nn(CC(F)(F)F)c5n4)C3)C2)cc(C(F)(F)F)n1` (stereo not drawn) [Cmpd 616], the negative-log EC50 (pEC50) (EC50 given as range classes) is 4.30 to 5.00. Same read-out and setting: for `Cn1c(N2CCC3(CCN(c4ccnc(C(F)(F)F)n4)C3)CC2)nc2c(cnn2CC(F)F)c1=O` [Cmpd 1014] the value was > 5.00.

As to `O=C1N(c2ccnc(C(F)(F)F)n2)CCC12CCN(c1cnc3cnn(CC(F)F)c3n1)CC2` [Cmpd 896], the pEC50 under setting [1] was > 5.00. The molecule `CCCn1c(N2CCC3(CN(c4cc(C(F)(F)F)nc(C)n4)C3)C2)nc2c(cnn2CC(F)F)c1=O` [Cmpd 1111] gave a pEC50 under setting [1] of 4.30 to 5.00. Still for that read-out and setting: next, `O=C1CC2(CCN(c3cnc4cnn(CC(F)F)c4n3)CC2)CN1Cc1cnc(C(F)(F)F)s1` [Cmpd 369]: 4.30 to 5.00.

In turn, `FC(F)Cn1ncc2ncc(NC3CCC4(CC3)CN(c3ccc(C(F)(F)F)cn3)C4)nc21` [Cmpd 198] had a pEC50 (EC50 given as range classes) of 4.30 to 5.00. `O=C(c1ccccc1OC(F)(F)F)N1CC2(CCN(c3cnc4cnn(CC(F)F)c4n3)C2)C1` [Cmpd 390]: the pEC50 (EC50 given as range classes) is > 5.00. Same read-out and setting: for `Cc1ncc(N2CC3(CCN(c4ncc5c(C)nn(CC(F)F)c5n4)C3)C2)c(C(F)(F)F)n1` [Cmpd 591] the value was > 5.00. Regarding `O=C1N(c2ccc(C(F)(F)F)nc2)C(=O)C2(CCN(c3cnc4cnn(CC(F)F)c4n3)CC2)N1Cc1cncc(F)c1` [Cmpd 883], the pEC50 under setting [1] was 4.30 to 5.00.

`CC1(C)CC2(CCN(c3cnc4cnn(CC(F)F)c4n3)CC2)C(=O)N1c1cc(C(F)(F)F)ccn1` [Cmpd 661] gave a pEC50 under setting [1] of 4.30 to 5.00. Molecule `O=S(=O)(c1ccccc1C(F)(F)F)N1CC2(CCN(c3cnc4cnn(CC(F)F)c4n3)C2)C1` [Cmpd 396] showed a pEC50 (EC50 given as range classes) of 4.30 to 5.00. Take `COc1ncc(N2CCC3(CCN(c4cnc5cnn(CC(F)F)c5n4)CC3)C2)cn1` [Cmpd 762]: the pEC50 under setting [1] was > 5.00. `Cc1nc(N2CCC3(CC2)CN(c2cnc4cnn(CC(F)F)c4n2)C3)cc(C(F)(F)F)n1` [Cmpd 588]: the pEC50 (EC50 given as range classes) was > 5.00. `Cc1nc(N2CC3(CCN(c4cnc5c(C)nn(C6COC6)c5n4)C3)C2)cc(C(F)(F)F)n1` [Cmpd 455] showed a negative logarithm of the EC50 (pEC50) under setting [1] of 4.30 to 5.00. Take `CCCc1cnc(C(F)(F)F)cc1N1CC2(CCN(c3cnc4cnn(CC(F)F)c4n3)C2)C1` [Cmpd 1031]: the pEC50 (EC50 given as range classes) was > 5.00.

For the molecule `O=C1CCC2(CN(c3cnc4cnn(CC(F)F)c4n3)C2)CN1c1ccc(C(F)(F)F)cn1` [Cmpd 315], the pEC50 under setting [1] was 4.30 to 5.00.

On to `CC1CN(c2cnc3cnn(CC(F)F)c3n2)CCC12CC(=O)N(c1cc(C(F)(F)F)ccn1)C2` (stereo not drawn) [Cmpd 725], for which the pEC50 under setting [1] is 4.30 to 5.00.

Take `CCOCCN1C(=O)N(c2cc(C(F)(F)F)ccn2)C(=O)C12CCN(c1cnc3cnn(CC(F)F)c3n1)CC2` [Cmpd 822]: for the setting “EC50 given as range classes”, the pEC50 was < 4.00.

With `O=C1N(c2ccnc(C(F)(F)F)c2)CCC12CN(c1cnc3cnn(CC(F)F)c3n1)C2` [Cmpd 337], the pEC50 under setting [1] is > 5.00. Molecule `FC(F)Cn1ncc2ncc(N3CCC4(CC3)CC(Nc3cccc(C(F)(F)F)n3)C4)nc21` [Cmpd 232] showed a pEC50 (EC50 given as range classes) of 4.30 to 5.00.

As for `COc1nn(C2COC2)c2nc(N3CCC4(CN(c5ccnc(C(F)(F)F)c5)C4)C3)cnc12` [Cmpd 943], the pEC50 under setting [1] is > 5.00. `FC(F)Cn1ncc2ncc(N3CCCC4(CCN(c5cncc(C(F)(F)F)c5)CC4)C3)nc21` [Cmpd 221] had a pEC50 (EC50 given as range classes) of 4.30 to 5.00.

On to `FC(F)Cn1ncc2ncc(N3CCOC4(CCN(c5cncc(C(F)(F)F)c5)CC4)C3)nc21` [Cmpd 210], for which the pEC50 (EC50 given as range classes) was > 5.00.

Turning to `O=C1N(c2nccc(C(F)(F)F)n2)CCC12CCN(c1cnc3cnn(C4COC4)c3n1)CC2` [Cmpd 278], the pEC50 under setting [1] was > 5.00. Same read-out and setting: for `FC(F)Cn1ncc2ncc(N3CC4(CN(c5ccc(C(F)(F)F)cn5)CCO4)C3)nc21` [Compound 172, 2-[1-(2,2-difluoroethyl)-1H-pyrazolo[3,4-b]pyrazin-6-yl]-8-[5-(trifluoromethyl)pyridin-2-yl]-5-oxa-2,8-diazaspiro[3.5]nonane] the value was 4.30 to 5.00.

With `O=C1N(c2ncc3cnn(C4COC4)c3n2)CCC12CN(c1ccnc(C(F)(F)F)c1)C2` [Cmpd 1004], for the setting “EC50 given as range classes”, the pEC50 was 4.30 to 5.00. With `CCn1ncc2ncc(N3CCC4(CC3)CC(=O)N(c3ccc(C(F)(F)F)nc3)C4)nc21` [Cmpd 890], the pEC50 under setting [1] is > 5.00.

On to `FC(F)(F)c1ccc(N2CCC3(CCN(c4cncc(N5CCCCC5)n4)CC3)C2)cn1` [Cmpd 256], for which the pEC50 under setting [1] was > 5.00. Under setting [1], `O=C1CC2(CCN(c3cnc4cnn(CC(F)F)c4n3)CC2)CN1c1ccc(Cl)nc1` [Cmpd 891] gave a pEC50 of 4.30 to 5.00. As to `O=C1N(c2ncc(C(F)(F)F)cc2F)CCC12CCN(c1cnc3cnn(CC(F)F)c3n1)CC2` [Cmpd 777], under setting [1], the pEC50 was < 4.00.

For `O=C1CC2(CCN(c3cnc4cnn(CC(F)F)c4n3)CC2)CN1Cc1ccc(Cl)c(F)c1` [Cmpd 448], the pEC50 under setting [1] is > 5.00. The same measure, in the same setting: next, `O=C1N(c2cnc3cnn(CC(F)F)c3n2)CCC12CN(c1ccnc(C(F)(F)F)c1)C2` [Cmpd 339]: 4.30 to 5.00. Consider `Cc1nc(N2CCC3(CCN(c4cc5c(cn4)c(C)nn5CC(F)F)CC3)C2)cc(C(F)(F)F)n1` [Cmpd 630], for which the pEC50 (EC50 given as range classes) is 4.30 to 5.00. As to `Cc1ncc(N2CC3(CCN(c4cnc5cnn(CC(F)F)c5n4)CC3)C2)c(C(F)(F)F)n1` [Cmpd 561], the pEC50 under setting [1] is 4.30 to 5.00. On the same count and under the same terms, for `O=C1CC2(CCCN(c3cnc4cnn(CC(F)F)c4n3)C2)CN1c1cc(C(F)(F)F)ccn1` (stereo not drawn) [Compound 97, 7-[1-(2,2-difluoroethyl)-1H-pyrazolo[3,4-b]pyrazin-6-yl]-2-[4-(trifluoromethyl)pyridin-2-yl]-2,7-diazaspiro[4.5]decan-3-one] the value was 4.00 to 4.30.

`Cc1nc(C(F)(F)F)ncc1N1CC2(CCN(c3cnc4cnn([C@@H]5CCOC5)c4n3)C2)C1` [Cmpd 657]: the negative-log EC50 (pEC50) under setting [1] was 4.30 to 5.00. On to `CCOc1ccc(CN2CC3(CCN(c4cnc5cnn(CC(F)F)c5n4)CC3)CC2=O)cn1` [Cmpd 361], for which, under setting [1], the pEC50 is 4.30 to 5.00.

As a reminder, the pEC50 is −log10 of the EC50, conventionally taken in molar units. A higher pEC50 goes with a small EC50.
